Measurements: US7550511B2, “Compositions that bind antiterminator RNA and assay for screening for such compositions” (Ahio University, priority 2001, dated 2009)

System: 9-(2-aminopurine)-RNA II versus 9-(2-aminopurine)-RNA IV (T-box antiterminator model RNAs)
Experiment: Fluorescence assay, relative fluorescence ratio (RNA binding selectivity) at 1 mM ligand
Conditions: (F-Fo) RNA II / (F-Fo) RNA IV; <1.0 preferential binding for RNA IV, >1.0 for RNA II

## NC(Cc1ccccc1)C(O)CO (stereo not shown) [Amino Alcohol 2, 3-amino-4-phenyl-butane-1,2-diol]
  relative fluorescence ratio (rounded): 0.4
